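How tested: cells in 96-well plates exposed to compound for 48 hours at five concentrations. GI50 is the concentration that inhibits growth by half.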 Calls of active or inactive are those of the source. Cut-off read from the data, not from the text of the source: active = GI50 up to about 1.1 µM and inactive = higher.
Columns and labels:
Assay in all cases: DTP human tumour cell line panel, 48 h
TK-10 = system: TK-10
M14 = system: M14
HOP-62 = system: HOP-62
SR = system: SR
ACHN = system: ACHN
786-0 = system: 786-0
SK-OV-3 = system: SK-OV-3
KM12 = system: KM12
OVCAR-5 = system: OVCAR-5
IGROV-1 = system: IGROV-1
LOX IMVI = system: LOX IMVI
SF-295 = system: SF-295
SK-MEL-2 = system: SK-MEL-2
HCT-15 = system: HCT-15
OVCAR-8 = system: OVCAR-8
COLO 205 = system: COLO 205
SNB-75 = system: SNB-75

Structure (SMILES) | GI50 (TK-10) | GI50 (M14) | GI50 (HOP-62) | GI50 (SR) | GI50 (ACHN) | GI50 (786-0) | GI50 (SK-OV-3) | GI50 (KM12) | GI50 (OVCAR-5) | GI50 (IGROV-1) | GI50 (LOX IMVI) | GI50 (SF-295) | GI50 (SK-MEL-2) | GI50 (HCT-15) [µM] | GI50 (OVCAR-8) | GI50 (COLO 205) | GI50 (SNB-75)
COC(=O)CCC(=O)Nc1cc(Cl)ccc1Cl | > 10 µM (inactive) | > 100 µM (inactive) | > 100 µM (inactive) | > 100 µM (inactive) | > 100 µM (inactive) | > 100 µM (inactive) | > 100 µM (inactive) | > 100 µM (inactive) | > 100 µM (inactive) | > 100 µM (inactive) | > 100 µM (inactive) | > 100 µM (inactive) | > 100 µM (inactive) | > 100 | > 100 µM (inactive) |  | 
Brc1ccc2c(c1)C1C(CO2)C(c2ccccc2)=NN1c1ccccc1 (stereo not given) | > 100 µM (inactive) |  | > 100 µM (inactive) |  | > 100 µM (inactive) | > 100 µM (inactive) | > 100 µM (inactive) | > 100 µM (inactive) | > 100 µM (inactive) | > 100 µM (inactive) | > 100 µM (inactive) | > 100 µM (inactive) | > 100 µM (inactive) |  | > 100 µM (inactive) | > 100 µM (inactive) | > 100 µM (inactive)
O=c1[nH]c2c(O)cccc2c2cc3c(c(O)c12)OCO3 [NARCIPRIMINE] | 42.7 µM (inactive) | 20.4 µM (inactive) | 19.2 µM (inactive) |  | 15.8 µM (inactive) | 25.5 µM (inactive) | 23.6 µM (inactive) | 16.7 µM (inactive) |  | 26.1 µM (inactive) | 11 µM (inactive) | 20.1 µM (inactive) |  | 22.5 | 23.6 µM (inactive) | 13.1 µM (inactive) | 20.8 µM (inactive)
CCOC(=O)NC(=O)c1cn(CCCCCOC(=O)NCCCCCCNC(=O)OCCCCCn2cc(C(=O)NC(=O)OCC)c(=O)[nH]c2=O)c(=O)[nH]c1=O |  | 31 µM (inactive) | > 100 µM (inactive) |  | > 100 µM (inactive) | > 100 µM (inactive) | > 100 µM (inactive) | > 100 µM (inactive) |  | > 100 µM (inactive) | > 100 µM (inactive) | > 100 µM (inactive) | > 100 µM (inactive) | > 100 | > 100 µM (inactive) | > 100 µM (inactive) | > 100 µM (inactive)
Cc1nc2nn(Cc3ccccc3)cc2c(=O)o1 | > 100 µM (inactive) |  | > 100 µM (inactive) |  | > 100 µM (inactive) | > 100 µM (inactive) |  | > 100 µM (inactive) | > 100 µM (inactive) | > 100 µM (inactive) | > 100 µM (inactive) | > 100 µM (inactive) | > 100 µM (inactive) | > 100 | > 100 µM (inactive) | > 100 µM (inactive) | > 100 µM (inactive)
O=C(N/N=C/c1ccccc1O)N/N=C/c1ccccc1O | > 100 µM (inactive) | > 100 µM (inactive) | > 100 µM (inactive) |  | > 100 µM (inactive) | > 100 µM (inactive) | > 100 µM (inactive) |  | > 100 µM (inactive) | > 100 µM (inactive) | > 100 µM (inactive) | > 100 µM (inactive) | > 100 µM (inactive) | > 100 | > 100 µM (inactive) | > 100 µM (inactive) | > 100 µM (inactive)
CC1c2c(Cl)nc3ccccc3c2Oc2c1c(Cl)nc1ccccc21 | 47.3 µM (inactive) |  | > 100 µM (inactive) |  | 51.5 µM (inactive) | 49.1 µM (inactive) | > 100 µM (inactive) | > 100 µM (inactive) | > 100 µM (inactive) | > 100 µM (inactive) | > 100 µM (inactive) | 67.3 µM (inactive) | 64.6 µM (inactive) |  | 85.7 µM (inactive) | > 100 µM (inactive) | 56 µM (inactive)
CCN(CC)CCNc1ccc2ncn3c4ccccc4c(=O)c1c23 | 7.41 µM (inactive) | 4.91 µM (inactive) | 5.81 µM (inactive) | 1.63 µM (inactive) | 2.24 µM (inactive) | 3.43 µM (inactive) | 2.45 µM (inactive) | 5.2 µM (inactive) | 7.93 µM (inactive) | 3.83 µM (inactive) | 1.64 µM (inactive) | 3.58 µM (inactive) | 5.01 µM (inactive) | 3.96 | 2.77 µM (inactive) | 1.87 µM (inactive) | 
O=C(N/C(=C\c1ccccc1Cl)c1nc2ccccc2[nH]1)c1ccccc1 | 76.4 µM (inactive) | 19.8 µM (inactive) |  | 23.3 µM (inactive) | 30.5 µM (inactive) | 32.7 µM (inactive) | 31.6 µM (inactive) | 32.5 µM (inactive) | 30.8 µM (inactive) | 25.1 µM (inactive) |  | 17 µM (inactive) | 23.5 µM (inactive) | 25.8 | 27.5 µM (inactive) | 34.6 µM (inactive) | 

From ChEMBL document CHEMBL1201862, “PubChem BioAssay data set” (2004)
